Consider 48 molecules from ChEMBL document CHEMBL2007661, “Compounds: GSK PKIS; Assays: UNC Frye lab” (2012).

Several values for one entry are separate records, joined by “and”; a condition that tells them apart may be missing. Identical values can stand only once.

Assay [1] deals with T1, Tyrosine-protein kinase Mer (Homo sapiens) (UniProt Q12866).
T1 sequence (whole entry): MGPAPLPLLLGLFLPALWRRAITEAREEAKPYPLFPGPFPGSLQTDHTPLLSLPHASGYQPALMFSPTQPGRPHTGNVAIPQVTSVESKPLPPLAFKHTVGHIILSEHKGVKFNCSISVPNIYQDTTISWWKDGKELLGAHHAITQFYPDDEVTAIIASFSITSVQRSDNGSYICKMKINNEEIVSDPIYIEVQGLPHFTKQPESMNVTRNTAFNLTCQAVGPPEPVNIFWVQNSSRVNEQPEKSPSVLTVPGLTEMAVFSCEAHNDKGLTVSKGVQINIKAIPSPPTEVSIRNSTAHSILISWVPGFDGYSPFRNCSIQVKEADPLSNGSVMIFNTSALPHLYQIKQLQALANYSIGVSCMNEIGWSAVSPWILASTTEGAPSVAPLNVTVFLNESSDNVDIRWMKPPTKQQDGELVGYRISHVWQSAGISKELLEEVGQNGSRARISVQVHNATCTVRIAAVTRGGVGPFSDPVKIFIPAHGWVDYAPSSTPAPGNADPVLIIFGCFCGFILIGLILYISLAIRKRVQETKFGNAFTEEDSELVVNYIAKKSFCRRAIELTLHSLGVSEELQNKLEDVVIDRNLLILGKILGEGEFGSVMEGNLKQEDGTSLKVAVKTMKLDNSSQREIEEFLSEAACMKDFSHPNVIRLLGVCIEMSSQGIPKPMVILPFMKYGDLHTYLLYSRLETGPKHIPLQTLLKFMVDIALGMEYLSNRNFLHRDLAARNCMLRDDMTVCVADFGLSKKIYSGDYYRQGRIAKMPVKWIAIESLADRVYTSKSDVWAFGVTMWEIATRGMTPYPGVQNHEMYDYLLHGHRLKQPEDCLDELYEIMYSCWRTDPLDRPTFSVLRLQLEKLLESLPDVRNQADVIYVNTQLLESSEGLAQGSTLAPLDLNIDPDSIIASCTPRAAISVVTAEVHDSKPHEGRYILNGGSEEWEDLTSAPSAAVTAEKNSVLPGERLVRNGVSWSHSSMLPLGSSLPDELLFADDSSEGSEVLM
The settings on record: at 10 µM.

In assay [2] the target is T2, Inhibitor of nuclear factor kappa-B kinase subunit beta (Homo sapiens) (UniProt O14920).
T2 sequence (whole entry): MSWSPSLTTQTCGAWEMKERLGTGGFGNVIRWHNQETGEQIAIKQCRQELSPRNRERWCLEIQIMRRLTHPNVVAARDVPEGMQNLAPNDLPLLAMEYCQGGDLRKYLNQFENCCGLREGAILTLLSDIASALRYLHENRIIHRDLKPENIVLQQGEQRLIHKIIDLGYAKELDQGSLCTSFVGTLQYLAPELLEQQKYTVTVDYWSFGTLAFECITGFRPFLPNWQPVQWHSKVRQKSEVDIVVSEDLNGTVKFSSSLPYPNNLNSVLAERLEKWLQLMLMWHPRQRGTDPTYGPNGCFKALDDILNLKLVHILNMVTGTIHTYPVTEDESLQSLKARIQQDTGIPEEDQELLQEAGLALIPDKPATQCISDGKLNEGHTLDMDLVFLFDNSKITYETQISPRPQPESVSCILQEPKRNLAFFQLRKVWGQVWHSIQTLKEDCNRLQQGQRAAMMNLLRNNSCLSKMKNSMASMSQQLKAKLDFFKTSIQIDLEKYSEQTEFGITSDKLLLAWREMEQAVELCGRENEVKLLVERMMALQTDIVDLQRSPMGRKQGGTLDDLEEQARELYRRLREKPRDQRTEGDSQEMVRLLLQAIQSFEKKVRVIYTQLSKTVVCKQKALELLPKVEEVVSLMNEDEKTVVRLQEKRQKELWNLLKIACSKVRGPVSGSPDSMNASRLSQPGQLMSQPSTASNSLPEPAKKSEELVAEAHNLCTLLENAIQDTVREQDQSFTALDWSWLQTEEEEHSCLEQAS
The settings on record: at 1 µM.

As to `Cc1cc(Cl)cc2c1NC(=O)C2=NNc1ccc(S(N)(=O)=O)cc1`, the inhibition is 63% in assay [1]; -6% and -1% in assay [2].

As to `COc1cccc(-c2c[nH]c3c(N/N=C/c4ccncc4)ncnc23)c1`, the inhibition in assay [1] was 85%; in assay [2], -3% and -6%.

Take `NS(=O)(=O)c1ccc(-c2ccc3c(NC(=O)C4CC4)n[nH]c3c2)cc1`: the inhibition in assay [1] was 11%; in assay [2], -7% and -3%.

In the case of `O=C(Nc1n[nH]c2cc(-c3ccccc3)ccc12)C1CC1`, the inhibition in assay [1] was -4%; in assay [2], -2% and -6%.

As to `COc1ccc(-c2nn3ncccc3c2-c2ccnc(Nc3ccc4c(c3)OCCO4)n2)cc1`, the figures for the inhibition in assay [1] and in assay [2] were 0% and -4%, respectively.

For the molecule `c1cnn2ncc(-c3ccnc(Nc4ccc5c(c4)OCCO5)n3)c2c1`, the inhibition was -3% in assay [1] and -4% in assay [2].

For `Cc1ccc(C(=O)NC2CCCCC2)cc1-c1ccc(C(=O)NCC2CC2)cc1`, the inhibition in assay [1] is -8%; in assay [2], 5% and 0%.

Turning to `CN1CCN(Cc2ccc(-c3cc4ncnc(Nc5ccc(OCc6cccc(F)c6)c(Cl)c5)c4s3)o2)CC1`, the values for the inhibition in assay [1] and in assay [2] were -4% and -3%, respectively.

On to `Fc1ccc(-c2ncn(C3CCNCC3)c2-c2ccnc(Oc3ccc4c(c3)OCO4)n2)cc1`, for which the inhibition was 6% in assay [1]; -2% and -3% in assay [2].

Regarding `Cc1ccc(O)cc1Nc1ccnc2cc(-c3ccccn3)ccc12`, the inhibition is -2% in assay [1]; 0% and -5% in assay [2].

For `O=C1Nc2ccc(-c3cccnc3)cc2C1=Cc1cc(Br)c(O)c(Br)c1`, the inhibition in assay [1] was 1%; in assay [2], -5% and -4%.

As for `CS(=O)(=O)CCNCc1ccoc1-c1ccc2ncnc(Nc3ccc(OCc4ccccc4)cc3)c2c1`, the inhibition in assay [1] is 88%; in assay [2], 5% and 4%.

`CNC(=O)c1cc(-c2ccc(F)cc2)cc(-c2ccc(S(=O)(=O)N3CCCC3)cc2)c1N`: the inhibition in assay [1] was -7%; in assay [2] it was 3% and 4%.

As for `OCCCNc1nccc(-c2c(-c3ccc(F)cc3)nn3cc(C(F)(F)F)ccc23)n1`, the inhibition in assay [1] is 57%; in assay [2] it was -4% and -5%.

`NS(=O)(=O)c1ccc(N/N=C2\C(=O)Nc3ccc(Cl)cc32)cc1`: the inhibition in assay [1] was 2%; in assay [2] it was -3% and -5%.

Take `COc1cc(Nc2ncc(-c3ccccc3)o2)cc(OC)c1`: the inhibition in assay [1] is -9%; in assay [2], 0% and -4%.

Regarding `CN1CCC(n2cnc(-c3ccc(F)cc3)c2-c2ccnc(N)n2)CC1`, the values for the inhibition in assay [1] and in assay [2] were -7% and -3%, respectively.

Regarding `COc1cc2ncn(-c3cc(OCc4ccccc4C(F)(F)F)c(C(C)=O)s3)c2cc1OC`, the inhibition in assay [1] was -1%; in assay [2], -7% and -4%.

`COc1cc2c(cc1Nc1nc(Nc3ccsc3C(N)=O)c3cc[nH]c3n1)N(C(=O)CN(C)C)CCC2`: the inhibition in assay [1] was 67%; in assay [2], -6% and -4%.

As to `COc1ccc(COc2ccc(Cc3cnc(N)nc3N)cc2OC)cc1`, the inhibition in assay [1] was 5%; in assay [2] it was -2% and -5%.

Take `[O-][S+]1CCN(Cc2ccc(-c3ccc4ncnc(Nc5ccc(OCc6cccc(F)c6)c(Cl)c5)c4c3)o2)CC1`: the inhibition in assay [1] is 67%; in assay [2], 2% and 3%.

As for `CN(c1ccc(NC(=O)Nc2ccc(OC(F)(F)F)cc2)cc1)c1ccnc(Nc2cccc(S(N)(=O)=O)c2)n1`, the inhibition was -1% in assay [1]; -5% and -4% in assay [2].

With `CNC(=O)c1cncc(/C=C/c2ccccc2Cl)c1`, the inhibition in assay [1] is 5%; in assay [2] it was -5%.

For the molecule `COc1cc2ncn(-c3cc(OCc4ccccc4C(F)(F)F)c(C(N)=O)s3)c2cc1OC`, the inhibition in assay [1] was 10%; in assay [2] it was -1% and 0%.

Turning to `CC(C)c1ccc(-c2cc(-c3c[nH]nc3-c3ccccn3)ccn2)cc1`, the inhibition in assay [1] is -10%; in assay [2], -3% and -1%.

`Cc1ccc(-c2cc3c(NC(=O)C4CC4)ncnc3o2)cc1`: the inhibition was 3% in assay [1]; -2% and -4% in assay [2].

On to `O=C1Nc2ccccc2/C1=C/Nc1ccc2[nH]c(=O)[nH]c2c1`, for which the inhibition in assay [1] was -2%; in assay [2] it was -5% and -3%.

As for `Cn1cc(C=C2C(=O)Nc3cccnc32)c2ccccc21`, the inhibition was -6% in assay [1]; -5% and 0% in assay [2].

Regarding `FC(F)(F)CNc1nccc(-c2cnn3ncccc23)n1`, the inhibition is 1% in assay [1]; -5% and 2% in assay [2].

For `CCc1cccc(NC(=O)Nc2ccc(Oc3ccc4nc(NC(=O)OC)[nH]c4c3)cc2)c1`, the inhibition in assay [1] is 8%; in assay [2], 0% and 6%.

In the case of `COC(=O)Nc1nc2cc(Oc3ccc(NC(=O)Nc4ccccc4)cc3)ccc2[nH]1`, the inhibition in assay [1] is 100%; in assay [2] it was 1% and -1%.

On to `CCN1CCC(CC(=O)Nc2n[nH]c3nnc(-c4cccc(F)c4F)cc23)CC1`, for which the inhibition in assay [1] is 9%; in assay [2], -2% and -1%.

As for `COc1cc2ncnc(Nc3ccc4c(cnn4Cc4ccccc4)c3)c2cc1OC`, the inhibition is 5% in assay [1]; 5% and -4% in assay [2].

`NS(=O)(=O)c1ccc(Nc2cc(-c3cccc(O)c3)n[nH]2)cc1`: the inhibition is 2% in assay [1]; -3% and -2% in assay [2].

For the molecule `CN(C)CCNC(=O)Nc1ccc(N(C)c2ccnc(Nc3ccc(CS(C)(=O)=O)cc3)n2)cc1`, the inhibition in assay [1] was 1%; in assay [2] it was -1% and -5%.

For the molecule `NC(=O)c1sc(-n2cnc3cc(C(F)(F)F)ccc32)cc1OCc1ccccc1Br`, the inhibition in assay [1] is 6%; in assay [2] it was -4% and -3%.

With `CN(C)C(=O)O[C@@H]1CN[C@@H](C#Cc2cc3ncnc(Nc4ccc(OCc5cccc(F)c5)c(Cl)c4)c3s2)C1`, the inhibition in assay [1] was 8%; in assay [2], -4% and -7%.

In the case of `Cc1c2ccc(N(C)c3ccnc(Nc4cccc(S(N)(=O)=O)c4)n3)cc2nn1C`, the inhibition in assay [1] was -9%; in assay [2], 0% and -1%.

On to `Nc1nccc(C#Cc2cncnc2Nc2ccc(OCc3cccc(F)c3)c(Cl)c2)n1`, for which the inhibition in assay [1] was 13%; in assay [2], -6% and -7%.

Consider `Nc1ncnc2occ(-c3ccc(NC(=O)Nc4cc(C(F)(F)F)cc(C(F)(F)F)c4)cc3)c12`, for which the inhibition in assay [1] was 2%; in assay [2], -4%.

For the molecule `CN(C)CCCn1c(-c2nonc2N)nc2cnccc21`, the inhibition in assay [1] was 23%; in assay [2] it was -5% and -4%.

Consider `CN1CCC(C(=O)Nc2n[nH]c3nc(-c4ccc(O)cc4)c(Br)cc23)CC1`, for which the inhibition in assay [1] is 15% and 7%; in assay [2], -1% [middle of 4 runs].

As for `Fc1ccc(-c2ncn(CCCN3CCOCC3)c2-c2ccncc2)cc1`, the inhibition was 21% in assay [1]; 0% and -5% in assay [2].

In the case of `COc1ccc2cc(-c3c(-c4ccncc4)nc(-c4ccc([S+](C)[O-])cc4)n3C)ccc2c1` (stereo unspecified), the inhibition in assay [1] was 77%; in assay [2], 2% and 3%.

Regarding `COc1cc2ncn(-c3cc(OCc4ccccc4S(C)(=O)=O)c(C#N)s3)c2cc1OC`, the inhibition in assay [1] was 2%; in assay [2], -5% and -2%.

Turning to `CCn1c(-c2nonc2N)nc2c(C#CC(C)(C)O)ncc(OCC3CCNCC3)c21`, the inhibition in assay [1] is 3%; in assay [2], -3%.

As to `c1ccc(Oc2ccc(Nc3ncc(-c4ccccc4)o3)cc2)cc1`, the inhibition was 27% in assay [1]; -5% and -2% in assay [2].

Consider `CC(=O)Nc1cccc(C#Cc2cncnc2Nc2ccc(OCc3cccc(F)c3)c(Cl)c2)n1`, for which the inhibition in assay [1] was 1%; in assay [2] it was -4% and -2%.
